In the supplement of paper PMC10307832:

Tests used:
Bortezomib = compound: CC(C)C[C@H](NC(=O)[C@H](Cc1ccccc1)NC(=O)c1cnccn1)B(O)O [Bortezomib]; test: relative viability (nuclei count vs DMSO), 5 days (fraction); higher = more cells survive
Method in brief: (§1)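 Acceptance criteria were a control CV below 25% and at least one doubling per plate. Lung cancer cell lines in 1536-well plates got five library-drug doses (not always all listed) √10 apart by pinning and were left 5 days with no medium change. Viability divides treated-well nuclei by vehicle-well nuclei and is the median across plates. Nuclei were counted by MetaXpress from 4× Hoechst images.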

[1] = compound: CC1=CC(=NN1)NC2=CC(=NC(=N2)/C=C/C3=CC=CC=C3)N4CCN(CC4)C; test: as above
Method in brief: as §1

| Cell Line | relative viability (Bortezomib; 0.0002 µM) | relative viability (Bortezomib; 0.000632 µM) | relative viability (Bortezomib; 0.002 µM) | relative viability (Bortezomib; 0.002 µM, anchor plate) | relative viability (Bortezomib; 0.006325 µM) | relative viability (Bortezomib; 0.02 µM) | relative viability ([1]; 0.08 µM) | relative viability ([1]; 0.253 µM) | relative viability ([1]; 0.8 µM) | relative viability ([1]; 2.53 µM) | relative viability ([1]; 8 µM) |
| --- | --- | --- | --- | --- | --- | --- | --- | --- | --- | --- | --- |
| HARA | 0.937 | 0.888 | 0.902 | 1.11 | 0.374 | 0.0946 | 0.908 | 0.951 | 1.25 | 0.339 | 0.217 |
| NCI-H1793 | 0.843 | 0.705 | 0.997 | – | 0.688 | 0.208 | 0.894 | 0.979 | 0.858 | 0.179 | 0.106 |
| SW 900 | 0.84 | 0.932 | 0.207 | – | 0.154 | 0.17 | 0.665 | 0.844 | 0.856 | 0.459 | 0.262 |
| NCI-H1703 | 1.15 | 0.757 | 0.356 | 0.338 | 0.132 | 0.119 | 0.825 | 0.912 | 0.575 | 0.19 | 0.135 |
| NCI-H2126 | 0.968 | 1.02 | 1.03 | 1.1 | 0.924 | 0.749 | 0.993 | 1.04 | 0.961 | 0.875 | 0.41 |
| HCC-827 | 1.06 | 1.04 | 1.05 | 1.05 | 0.738 | 0.165 | 1.02 | 1.06 | 1.06 | 0.89 | 0.443 |
| ABC-1 | 0.779 | 0.566 | 0.271 | 0.321 | 0.216 | 0.242 | 0.835 | 0.888 | 1.16 | 0.341 | 0.227 |
| BEN | 0.91 | 0.991 | 0.954 | 0.843 | 0.704 | 0.274 | 0.921 | 0.974 | 0.998 | 0.618 | 0.224 |
| ChaGo-K-1 | 0.993 | 0.814 | 1.01 | 1.08 | 0.594 | 0.213 | 0.953 | 1.01 | 0.976 | 0.647 | 0.289 |
| NCI-H23 | 0.777 | 0.72 | 0.995 | 1.09 | 0.294 | 0.134 | 0.891 | 0.886 | 0.796 | 0.225 | 0.144 |
| UMC-11 | 0.896 | 0.927 | 0.946 | 0.757 | 0.668 | 0.185 | 0.928 | 0.904 | 0.693 | 0.187 | 0.141 |
| NCI-H1975 | 0.902 | 0.858 | 0.239 | 0.395 | 0.153 | 0.158 | 0.954 | 0.956 | 0.984 | 0.458 | 0.152 |
| COR-L 105 | 0.855 | 0.936 | 0.797 | 0.931 | 0.292 | 0.314 | 0.848 | 1 | 0.891 | 0.301 | 0.27 |
| LK-2 | 0.841 | 0.89 | 0.647 | – | 0.209 | 0.182 | 1.04 | 1.02 | 0.809 | 0.47 | 0.127 |
| EKVX | 0.934 | 0.96 | 0.987 | 1.04 | 0.669 | 0.124 | 0.9 | 1.05 | 1.09 | 0.844 | 0.267 |
| NCI-H2009 | 1.01 | 0.977 | 1.07 | 0.971 | 0.0869 | 0.0749 | 0.995 | 0.95 | 0.997 | 0.646 | 0.243 |
| NCI-H838 | 0.952 | 0.955 | 0.974 | 0.858 | 0.253 | 0.161 | 0.963 | 1.03 | 0.846 | 0.214 | 0.133 |
| NCI-H2085 | 0.979 | 0.978 | 0.993 | 1.07 | 0.617 | 0.23 | 1.04 | 1.05 | 0.95 | 0.695 | 0.323 |
